Assay results from ChEMBL document CHEMBL1201862, “PubChem BioAssay data set” (2004).
Values joined by “and” are separate entries in the source; they are usually repeats but may differ in a detail not shown here. Equal entries are not always repeated.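 All cell lines were grown in 96-well plates and treated with compound for 48 hours. GI50 = concentration required for 50% inhibition of growth.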 Active and inactive are the calls of the source. No stated cut-off is given here; in the data, active = GI50 up to about 1.1 µM and inactive = higher.

How the values were obtained:
Experiment in all cases: growth of human tumour cells (NCI), 48 h
COLO 205 = system: COLO 205
EKVX = system: EKVX
HCT-116 = system: HCT-116
HOP-92 = system: HOP-92
LOX IMVI = system: LOX IMVI
MDA-MB-435 = system: MDA-MB-435
MDA-N = system: MDA-N
MOLT-4 = system: MOLT-4
NCI-H460 = system: NCI-H460
OVCAR-8 = system: OVCAR-8
SK-MEL-28 = system: SK-MEL-28
SK-MEL-2 = system: SK-MEL-2
SN12C = system: SN12C
SNB-19 = system: SNB-19
SNB-75 = system: SNB-75
SW-620 = system: SW-620
UO-31 = system: UO-31
NCI-H522 = system: NCI-H522
SR = system: SR
T47D = system: T47D

Row | Compound | GI50 (COLO 205) | GI50 (EKVX) | GI50 (HCT-116) | GI50 (HOP-92) | GI50 (LOX IMVI) | GI50 (MDA-MB-435) | GI50 (MDA-N) | GI50 (MOLT-4) | GI50 (NCI-H460) | GI50 (OVCAR-8) | GI50 (SK-MEL-28) | GI50 (SK-MEL-2) | GI50 (SN12C) | GI50 (SNB-19) | GI50 (SNB-75) | GI50 (SW-620) | GI50 (UO-31) | GI50 (NCI-H522) | GI50 (SR) | GI50 (T47D)
1 | COc1ccc(/C=C/C(=O)CCN2CCN(CCC(=O)/C=C/c3ccc(OC)cc3)CC2)cc1 | 2.01 µM (inactive) | 14.5 µM (inactive) | 3.29 µM (inactive) | 18.6 µM (inactive) | 3.49 µM (inactive) | 9.35 µM (inactive) | 2.54 µM (inactive) | 6.87 µM (inactive) | 11.1 µM (inactive) | 20.8 µM (inactive) | 13.6 µM (inactive) | 19.4 µM (inactive) | 12.6 µM (inactive) | 43.6 µM (inactive) | 19.1 µM (inactive) | 4.1 µM (inactive) | 14.6 µM (inactive) |  |  | 
2 | CC(NCCN(C)C)C1CCC2C3CCc4cc(O)ccc4C3CCC12C (stereo unspecified) | 1.84 µM (inactive) | 5.19 µM (inactive) | 2.66 µM (inactive) | 2.81 µM (inactive) | 2.03 µM (inactive) | 2.05 µM (inactive) |  | 1.85 µM (inactive) | 2.2 µM (inactive) | 2.79 µM (inactive) | 2.19 µM (inactive) | 1.91 µM (inactive) | 2 µM (inactive) | 3.54 µM (inactive) | 3.14 µM (inactive) | 3.33 µM (inactive) | 1.81 µM (inactive) | 3.2 µM (inactive) | 1.44 µM (inactive) | 2.34 µM (inactive)
3 | Cc1cccc2c(N)c3cccc(C(=O)NCC[N+](C)(C)Cc4ccc(S(C)(=O)=O)cc4)c3nc12 | 47.1 µM (inactive) | > 91.2 µM (inactive) | 36.5 µM (inactive) | 70 µM (inactive) | 28.8 µM (inactive) | > 100 µM (inactive) | > 100 µM (inactive) | 2.02 µM (inactive) | 4.3 µM (inactive) | 79.6 µM (inactive) | > 100 µM (inactive) | 98.4 µM (inactive) | 2.9 µM (inactive) | 18.7 µM (inactive) | 10.8 µM (inactive) | 56.4 µM (inactive) | 75.9 µM (inactive) |  |  | 59.7 µM (inactive)
4 | COC(=O)c1c(O)ccc2c1c1c(n2Cc2ccccn2)C(=O)c2ccccc2C1 | 13.5 µM (inactive) |  | 50 µM (inactive) |  | > 100 µM (inactive) | 86.5 µM (inactive) | > 100 µM (inactive) | 95.1 µM (inactive) | 50.2 µM (inactive) | > 100 µM (inactive) | > 100 µM (inactive) | 75 µM (inactive) | > 100 µM (inactive) | > 100 µM (inactive) | > 100 µM (inactive) | > 100 µM (inactive) | 54.5 µM (inactive) |  | > 100 µM (inactive) | 
5 | CC(C)/C(Cl)=N\OC(=O)Nc1ccc(F)cc1F | 1.87 µM (inactive) | 6.53 µM (inactive) | 3.78 µM (inactive) | 1.82 µM (inactive) | 1.66 µM (inactive) |  | 9.33 µM (inactive) | 1.85 µM (inactive) | 20.7 µM (inactive) | 15.6 µM (inactive) | 11 µM (inactive) | 13.6 µM (inactive) | 6.78 µM (inactive) | 19.5 µM (inactive) | 17.3 µM (inactive) | 1.78 µM (inactive) | 7.52 µM (inactive) |  | 1.67 µM (inactive) | 14.4 µM (inactive)
6 | O=C(O)CC(NC(=O)/C(=C/c1ccccc1)NC(=O)c1ccccc1)C(=O)O (stereo unspecified) | > 100 µM (inactive) | > 100 µM (inactive) | > 100 µM (inactive) | > 100 µM (inactive) | > 100 µM (inactive) | > 100 µM (inactive) | > 100 µM (inactive) | > 100 µM (inactive) | > 100 µM (inactive) | > 100 µM (inactive) | > 100 µM (inactive) | > 100 µM (inactive) | > 100 µM (inactive) | > 100 µM (inactive) | > 100 µM (inactive) | > 100 µM (inactive) | > 100 µM (inactive) | > 100 µM (inactive) |  | > 100 µM (inactive)
7 | N#Cc1c(-c2ccccc2)[nH]c(=O)n(C2OC(CO)C(O)C(O)C2O)c1=O (stereo unspecified) | > 100 µM (inactive) | > 100 µM (inactive) | > 100 µM (inactive) | > 100 µM (inactive) |  | > 100 µM (inactive) |  | > 100 µM (inactive) | > 100 µM (inactive) | > 100 µM (inactive) | > 100 µM (inactive) | > 100 µM (inactive) | > 100 µM (inactive) | > 100 µM (inactive) | > 100 µM (inactive) and 75.7 µM (inactive) | > 100 µM (inactive) | > 100 µM (inactive) |  |  | > 100 µM (inactive)
8 | Cc1cn(C2CC(N=[N+]=[N-])C(C(=O)O)O2)c(=O)[nH]c1=O (stereo unspecified) | > 100 µM (inactive) | > 100 µM (inactive) | > 100 µM (inactive) | > 100 µM (inactive) |  | > 100 µM (inactive) | > 100 µM (inactive) | > 100 µM (inactive) | > 100 µM (inactive) | > 100 µM (inactive) |  | > 100 µM (inactive) | > 100 µM (inactive) | > 100 µM (inactive) | > 100 µM (inactive) | > 100 µM (inactive) | > 100 µM (inactive) | > 100 µM (inactive) | > 100 µM (inactive) | 
9 | COc1ccc(/C=C2\CN(C)CC3C2=NN(c2ccccc2)C3c2ccc(OC)cc2)cc1 (stereo unspecified) | > 100 µM (inactive) | > 100 µM (inactive) | > 100 µM (inactive) | 28 µM (inactive) | > 100 µM (inactive) | > 100 µM (inactive) | > 100 µM (inactive) | > 100 µM (inactive) | > 100 µM (inactive) | 67.5 µM (inactive) | > 100 µM (inactive) |  | > 100 µM (inactive) | 27.2 µM (inactive) |  | > 100 µM (inactive) | > 100 µM (inactive) | 72.9 µM (inactive) |  | > 100 µM (inactive)
10 | Cc1ccc(S(=O)(=O)N(/N=C(\N)Oc2ccc(Cl)cc2)C(=N)Oc2ccc(Cl)cc2)cc1 | > 100 µM (inactive) | > 100 µM (inactive) | > 100 µM (inactive) | > 100 µM (inactive) | > 100 µM (inactive) |  |  | > 100 µM (inactive) | > 100 µM (inactive) | > 100 µM (inactive) | > 100 µM (inactive) | > 100 µM (inactive) | > 100 µM (inactive) | > 100 µM (inactive) | > 100 µM (inactive) | > 100 µM (inactive) | > 100 µM (inactive) | > 100 µM (inactive) | > 100 µM (inactive) | 
11 | Cc1ccc(/N=N/c2ccc(N)cc2C)c(S(N)(=O)=O)c1 | 76.7 µM (inactive) | 26.1 µM (inactive) | 75.3 µM (inactive) | 32.1 µM (inactive) | 78.5 µM (inactive) |  | 71.9 µM (inactive) | 64 µM (inactive) | 49.3 µM (inactive) | 76.7 µM (inactive) | > 100 µM (inactive) | > 100 µM (inactive) | > 100 µM (inactive) | > 100 µM (inactive) | 61.9 µM (inactive) | > 100 µM (inactive) | 63 µM (inactive) | 36.4 µM (inactive) | 0.478 µM (active) | 48.8 µM (inactive)
12 | Cc1ccsc1/C=N/Nc1nc2ccccc2s1 | 35.2 µM (inactive) | 19.3 µM (inactive) | 11.2 µM (inactive) | 13.4 µM (inactive) | 23.9 µM (inactive) | 70.1 µM (inactive) | 34.8 µM (inactive) | 16.2 µM (inactive) |  | 23 µM (inactive) | 25.1 µM (inactive) | 26.2 µM (inactive) | 13.3 µM (inactive) | 12.8 µM (inactive) | 20.5 µM (inactive) | 25 µM (inactive) | 20.8 µM (inactive) |  |  | 48.8 µM (inactive)
13 | CCOC(=O)/C(=C/c1cc(OC)ccc1OC)CC(=O)O | > 100 µM (inactive) | > 100 µM (inactive) | > 100 µM (inactive) | > 100 µM (inactive) | > 100 µM (inactive) |  |  | > 25.7 µM (inactive) | > 100 µM (inactive) | > 100 µM (inactive) | > 100 µM (inactive) | 19.5 µM (inactive) | > 100 µM (inactive) | > 100 µM (inactive) | > 100 µM (inactive) | > 100 µM (inactive) | > 100 µM (inactive) | > 100 µM (inactive) | > 100 µM (inactive) | 
14 | c1cc(N(CCn2cccn2)CCn2cccn2)cc(N(CCn2cccn2)CCn2cccn2)c1 | > 100 µM (inactive) | > 100 µM (inactive) | > 100 µM (inactive) | > 100 µM (inactive) | > 100 µM (inactive) |  |  | > 100 µM (inactive) | > 100 µM (inactive) | > 100 µM (inactive) | > 100 µM (inactive) | > 100 µM (inactive) | > 100 µM (inactive) | > 100 µM (inactive) | > 100 µM (inactive) | > 100 µM (inactive) | > 100 µM (inactive) | > 100 µM (inactive) | > 100 µM (inactive) | 
15 | O=C1NC2(CCCC2)C2CCCCC12O (stereo unspecified) | > 100 µM (inactive) | > 100 µM (inactive) | > 100 µM (inactive) | > 100 µM (inactive) | > 100 µM (inactive) |  |  | > 100 µM (inactive) | > 100 µM (inactive) | > 100 µM (inactive) | > 100 µM (inactive) | > 100 µM (inactive) | > 100 µM (inactive) | > 100 µM (inactive) | > 100 µM (inactive) | > 100 µM (inactive) | > 100 µM (inactive) | > 100 µM (inactive) | > 100 µM (inactive) | 
16 | COc1cc(C2c3cc4c(cc3OC(NN)C2C)OCO4)cc(OC)c1O (stereo unspecified) | 15.2 µM (inactive) |  | 4.63 µM (inactive) | 23.6 µM (inactive) |  | 2.32 µM (inactive) | 1.84 µM (inactive) |  |  | 16.5 µM (inactive) | 6.75 µM (inactive) | 3.3 µM (inactive) | 4.3 µM (inactive) | 32.5 µM (inactive) | 4.28 µM (inactive) | 4.73 µM (inactive) | 19.8 µM (inactive) | 5.96 µM (inactive) |  | 7.28 µM (inactive)
